The nature of assay [1]: Inhibition of tRNA-guanine transglycosylase (unknown origin) assessed as Gibbs free enthalpy at 25 degC at 200 to 300 uM by isothermal titration calorimetry.
Assay [2] is described as follows: Inhibition of tRNA-guanine transglycosylase (unknown origin) assessed as entropy at 25 degC at 200 to 300 uM by isothermal titration calorimetry.
Assay [3] in a line: Inhibition of tRNA-guanine transglycosylase (unknown origin) assessed as buffer-corrected enthalpy values at 25 degC at 200 to 300 uM by isothermal titration calorimetry.

For the molecule `Nc1nc2cc3nc(NCc4cccs4)[nH]c3cc2c(=O)[nH]1`, the deltaG in assay [1] is -39.7 kJ/mol. Further, the -TdeltaS in assay [2] was 26.6 kJ/mol. For the same molecule, in assay [3], the deltaH was -66.3 kJ/mol.

Take `O=c1[nH]cnc2cc3nc(NCCN4CCOCC4)[nH]c3cc12`: the deltaG in assay [1] was -36.7 kJ/mol. For the same molecule, the -TdeltaS in assay [2] is 12.2 kJ/mol. Besides, the deltaH in assay [3] is -48.9 kJ/mol.

On to `Nc1nc2cc3[nH]c(NCCN4CCOCC4)nc3cc2c(=O)[nH]1`, for which the deltaG in assay [1] is -42.6 kJ/mol. Moreover, the -TdeltaS in assay [2] came to 53.8 kJ/mol. In assay [3], the deltaH is -96.4 kJ/mol.

Turning to `O=c1[nH]cnc2cc3nc(NCc4cccs4)[nH]c3cc12`, the deltaG in assay [1] is -33 kJ/mol. The -TdeltaS in assay [2] worked out at 9.1 kJ/mol. Moreover, the deltaH in assay [3] is -42.1 kJ/mol.

Consider `O=c1[nH]cnc2cc3[nH]c(NCCN4CCCCC4)nc3cc12`, for which the deltaG in assay [1] was -36.5 kJ/mol. In addition, in assay [2], the -TdeltaS was 14.1 kJ/mol. For the same molecule, in assay [3], the deltaH was -50.6 kJ/mol.

Take `CNc1nc2cc3c(=O)[nH]c(N)nc3cc2[nH]1`: in assay [1], the deltaG was -41.6 kJ/mol. Besides, the -TdeltaS in assay [2] was determined as 55.8 kJ/mol. For the same molecule, in assay [3], the deltaH was -97.4 kJ/mol.

As for `Nc1nc2cc3[nH]c(NCCN4CCCCC4)nc3cc2c(=O)[nH]1`, the deltaG in assay [1] was -42.6 kJ/mol. The -TdeltaS in assay [2] came to 36.3 kJ/mol. The deltaH in assay [3] is -78.9 kJ/mol.

With `CNc1nc2cc3c(=O)[nH]cnc3cc2[nH]1`, in assay [1], the deltaG is -36.5 kJ/mol. The -TdeltaS in assay [2] was 11.2 kJ/mol. In assay [3], the deltaH is -47.7 kJ/mol.

Values taken from ChEMBL document CHEMBL3297655, “Beyond affinity: enthalpy-entropy factorization unravels complexity of a flat structure-activity relationship for inhibition of a tRNA-modifying enzyme” (J Med Chem, 2014).
